Experimental data as given in patent publication US11021457B2, “Class of isoindolone-imide ring-1,3-dione-2-ene compounds, composition and use thereof” (WIGEN BIOMEDICINE TECHNOLOGY (SHANGHAI) CO., LTD., priority 2017, dated 2021).

Experiments:
LC3B = LC3B (Homo sapiens (Human), UniProt Q9GZQ8); test: Fluorescence polarization experiment targeting LC3B (GST-LC3B with FITC-labeled peptide); details: GST-LC3B 180 nM, FITC-labeled peptide 18 nM, 25° C.
MDA-MB-453 = test: Inhibition of tumor cell proliferation, CellTiter-Glo, MDA-MB-453; type: cell-based; details: compound concentration 50 μM, 72 hours
How it was run: (§1)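 Cells seeded at 2000-10000 cells/well in complete medium at 37° C., 5% CO2; suspension lines dosed immediately, adherent lines after attachment. Viability by CellTiter-Glo luminescence at 72 h; survival % from blank-corrected RLU vs control. Scored at 50 μM: + (60-<90%), ++ (>30-60%), +++ (≤30%).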

BxPC-3 = test: Inhibition of tumor cell proliferation, CellTiter-Glo, BxPC-3; type: cell-based; details: compound concentration 50 μM, 72 hours
How it was run: as §1

SU-DHL6 = test: Inhibition of tumor cell proliferation, CellTiter-Glo, SU-DHL6; type: cell-based; details: compound concentration 50 μM, 72 hours
How it was run: as §1

A549 = test: Inhibition of tumor cell proliferation, CellTiter-Glo, A549; type: cell-based; details: compound concentration 50 μM, 72 hours
How it was run: as §1

K562 = test: Inhibition of tumor cell proliferation, CellTiter-Glo, K562; type: cell-based; details: compound concentration 50 μM, 72 hours
How it was run: as §1

RPMI-8226 = test: Inhibition of tumor cell proliferation, CellTiter-Glo, RPMI-8226; type: cell-based; details: compound concentration 50 μM, 72 hours
How it was run: as §1

Row | SMILES | IC50 (LC3B) [µM] | Inhibitory activity against proliferation (cell survival rate) MDA-MB-453 (MDA-MB-453) | Inhibitory activity against proliferation (cell survival rate) BxPC-3 (BxPC-3) | Inhibitory activity against proliferation (cell survival rate) SU-DHL6 (SU-DHL6) | Inhibitory activity against proliferation (cell survival rate) A549 (A549) | Inhibitory activity against proliferation (cell survival rate) K562 (K562) | Inhibitory activity against proliferation (cell survival rate) RPMI-8226 (RPMI-8226)
1 | O=C1CCC(N2C(=O)c3cccc(NC=C4C(=O)CC(c5cccc(Cl)c5Cl)CC4=O)c3C2=O)C(=O)N1 (stereo not drawn) [Compound 6] | < 3 | + (60≤survival rate (%)<90) | + (60≤survival rate (%)<90) | + (60≤survival rate (%)<90) | + (60≤survival rate (%)<90) | + (60≤survival rate (%)<90) | + (60≤survival rate (%)<90)
2 | CC(=O)Nc1ccccc1C1CC(=O)C(=CNc2cccc3c2CN(C2CCC(=O)NC2=O)C3=O)C(=O)C1 (stereo not drawn) [Compound 156] | < 3 | +++ (survival rate (%)≤30) | + (60≤survival rate (%)<90) | +++ (survival rate (%)≤30) | + (60≤survival rate (%)<90) | +++ (survival rate (%)≤30) | +++ (survival rate (%)≤30)
3 | O=C1CCC(N2Cc3c(NC(=O)CN4CCN(CCNC=C5C(=O)CC(c6c(Cl)ccc(C(F)(F)F)c6Cl)CC5=O)CC4)cccc3C2=O)C(=O)N1 (stereo not drawn) [Compound 158] | < 3 | +++ (survival rate (%)≤30) | + (60≤survival rate (%)<90) | +++ (survival rate (%)≤30) | +++ (survival rate (%)≤30) | ++ (30<survival rate (%)≤60) | ++ (30<survival rate (%)≤60)
4 | O=C1CCC(N2Cc3c(NC=C4C(=O)CC(c5cccc6[nH]cc(C(F)(F)F)c56)CC4=O)cccc3C2=O)C(=O)N1 (stereo not drawn) [Compound 15] | < 3 | + (60≤survival rate (%)<90) | ++ (30<survival rate (%)≤60) | ++ (30<survival rate (%)≤60) | + (60≤survival rate (%)<90) | + (60≤survival rate (%)<90) | +++ (survival rate (%)≤30)
5 | O=C1CCC(N2Cc3c(NC=C4C(=O)CC(c5cc(C(F)(F)F)ccc5Cl)CC4=O)cccc3C2=O)C(=O)N1 (stereo not drawn) [Compound 144] | < 3 | +++ (survival rate (%)≤30) | + (60≤survival rate (%)<90) | +++ (survival rate (%)≤30) | + (60≤survival rate (%)<90) | +++ (survival rate (%)≤30) | +++ (survival rate (%)≤30)
6 | O=C1CCC(N2Cc3c(NC=C4C(=O)CC(c5cccc6[nH]ccc56)CC4=O)cccc3C2=O)C(=O)N1 (stereo not drawn) [Compound 3] | < 3 | ++ (30<survival rate (%)≤60) | + (60≤survival rate (%)<90) | +++ (survival rate (%)≤30) | + (60≤survival rate (%)<90) | + (60≤survival rate (%)<90) | + (60≤survival rate (%)<90)
7 | COc1ccc(C2CC(=O)C(=CNc3cccc4c3CN(C3CCC(=O)NC3=O)C4=O)C(=O)C2)c(F)c1F (stereo not drawn) [Compound 153] | < 3 | +++ (survival rate (%)≤30) | + (60≤survival rate (%)<90) | +++ (survival rate (%)≤30) | +++ (survival rate (%)≤30) | ++ (30<survival rate (%)≤60) | ++ (30<survival rate (%)≤60)
8 | O=C1CCC(N2Cc3c(NC(=O)CCCNC=C4C(=O)CC(c5ccccc5)CC4=O)cccc3C2=O)C(=O)N1 (stereo not drawn) [Compound 47] | 100 to 1000 | +++ (survival rate (%)≤30) | ++ (30<survival rate (%)≤60) | +++ (survival rate (%)≤30) | + (60≤survival rate (%)<90) | + (60≤survival rate (%)<90) | + (60≤survival rate (%)<90)
9 | O=C1CCC(N2Cc3c(NC=C4C(=O)CC(c5cc(C(F)(F)F)ccc5F)CC4=O)cccc3C2=O)C(=O)N1 (stereo not drawn) [Compound 140] | < 3 | ++ (30<survival rate (%)≤60) | ++ (30<survival rate (%)≤60) | +++ (survival rate (%)≤30) | +++ (survival rate (%)≤30) | +++ (survival rate (%)≤30) | +++ (survival rate (%)≤30)
10 | O=C1CCC(N2Cc3c(NC=C4C(=O)CC(c5cc6[nH]ccc6cc5Cl)CC4=O)cccc3C2=O)C(=O)N1 (stereo not drawn) [Compound 151] | < 3 | +++ (survival rate (%)≤30) | + (60≤survival rate (%)<90) | +++ (survival rate (%)≤30) | + (60≤survival rate (%)<90) | +++ (survival rate (%)≤30) | +++ (survival rate (%)≤30)
11 | O=C1CCC(N2Cc3c(NC=C4C(=O)CC(c5ccccc5Br)CC4=O)cccc3C2=O)C(=O)N1 (stereo not drawn) [Compound 18] | < 3 | + (60≤survival rate (%)<90) | + (60≤survival rate (%)<90) | ++ (30<survival rate (%)≤60) | + (60≤survival rate (%)<90) | ++ (30<survival rate (%)≤60) | + (60≤survival rate (%)<90)
12 | O=C1CCC(N2Cc3c(NC=C4C(=O)CC(c5ccc(F)cc5Br)CC4=O)cccc3C2=O)C(=O)N1 (stereo not drawn) [Compound 17] | < 3 | + (60≤survival rate (%)<90) | + (60≤survival rate (%)<90) | + (60≤survival rate (%)<90) | ++ (30<survival rate (%)≤60) | + (60≤survival rate (%)<90) | +++ (survival rate (%)≤30)
